Test results from paper PMC9232501, “Results of the phase I CCTG IND.231 trial of CX-5461 in patients with advanced solid tumors enriched for DNA-repair deficiencies” (Nature Communications, 2022).
Values joined by “and” are separate entries in the source; they are usually repeats but may differ in a detail not shown here. Identical values can stand only once.

What was measured:
advanced solid tumors = test: Efficacy assessment by RECIST 1.1 (best response, ORR, DCR, duration of response); type: in vivo, human; design: partial_response_date (time at which PR was documented) / bestchange (best change of target lesions, Figure 3): unit not given here; settings: for bestchange (best change of target lesions, Figure 3): one value per patient; for time_on_study: individual patients
Method: Computed tomography of chest, abdomen, and pelvis was performed at baseline and every 8 weeks and as clinically indicated. All patients who had at least one post-baseline scan were included in efficacy analyses; patients with the non-target disease only were assessed for non-CR/non-PD and PD. Patients were evaluated for CR, PR, SD, or PD as defined by RECIST 1.1[23]. The objective response rate (ORR = CR+PR) and disease control rate (DCR = CR + PR + SD ≥ 6 months) are reported. Duration of response was defined as the time from when CR or PR was first documented until the first date that progressive disease was objectively documented or the time of the last disease assessment.

HCT116 cells = test: HCT116 cytotoxicity (WST-1 assay) with and without UVA radiation; type: cell-based, Human
Method: Fig. 5 Comparison of G4 ligand photosensitization. […] Vertical axis, fractional survival, horizontal axis log10 drug concentration (M) (f) Representative images of CPD immunofluorescent staining under UV and drug treatment conditions for U2OS cells, quantified from biological duplicates in (g) (h) Scale bar = 100um. U2OS cells were treated with drug or vehicle control, then immediately irradiated with UVA 125 mJ/cm^2; and fixed 1 h later for immunofluorescence staining with CPD antibody. g Distribution of mean intensity of CPD level per cell (total n = in labels), with two biological repeats per condition. Vertical axis, mean CPD intensity per cell, horizontal axis, conditions (h) WT or KO XPA HAP1 cells assayed for cytotoxicity. Vertical axis, fractional survival (WST-1 assay). The horizontal axis, log10 drug concentration (M). Error bars = standard deviation of the mean. Three biological repeats per condition.
Human epidermal keratinocytes (HEKa) cells were sourced from Thermo Fisher Scientific, and were grown in EpiLife™ Medium with HKGS. HAP WT and XPA knockout cell lines (Horizon Discovery) were cultured in IMDM, 10% FCS. Human HCT116 cells, U2OS cells (ATCC) were grown in McCoy’s 5 A medium with 10% FBS and L-glutamine. All cell lines are mycoplasma free and have been authenticated by STR or SNP profiling. CX-5461 was provided by Senhwa Biosciences, Inc. PDS is from Sigma-Aldrich, BRACO-19 from Alfa Chemistry, PhENDC3 is from Sigma-Aldrich, γ -H2AX antibody from Abcam (1:1000 for IF) and CPD antibody (1:1500) from Cosmo Bio Ltd. (Catalog number: CAC-NM-DAD-001). The WST-1 assay was performed as previously described, γ H2AX foci staining was performed as previously described. Immunofluorescence staining of CPD was performed according to the protocol from the manufacturer (Cosmo Bio Ltd).

G-quadruplex (G4) DNA = system: G-quadruplex (G4) DNA; design: method as in PMID 28211448; settings: in vitro and in vivo; cited from earlier work
[1] = BRCA1/2, PALB2 or TP53 germline or somatic mutations
[2] = BRCA1/2 or PALB2 germline or somatic mutations
[3] = dose_level 2, Breast, patient 400006
[4] = dose_level 4, Ovarian, patient 400035
[5] = dose_level 8, Breast, patient 400012
[6] = dose_level 9, Breast, patient 400030

Cc1cnc(CNC(=O)c2c(=O)c3ccc(N4CCCN(C)CC4)nc3n3c2sc2ccccc23)cn1 [CX-5461]
patients with confirmed PR (advanced solid tumors; 3 breast, 1 ovarian, all with germline DNA-repair abnormalities): Four | overall DCR (CR + PR + SD ≥ 6 months) (advanced solid tumors; 8/40, 95% CI: 9.1–35.7%): 20% | Best Response Complete Response (CR), N patients (advanced solid tumors; All treated patients N=40): 0 | Best Response Partial Response (PR), N patients (advanced solid tumors; All treated patients N=40): 4 | Best Response Progressive Disease (PD), N patients (advanced solid tumors; All treated patients N=40): 21 | Best Response Stable Disease (SD), N patients (advanced solid tumors; All treated patients N=40): 11 | Response Duration Median (range), SD (advanced solid tumors; All treated patients N=40, range 2.3-10.9): 3.6 Mo. | Response Duration Median (range), PR (advanced solid tumors; All treated patients N=40, range 5.5-8.2): 6.5 Mo. | Best Response Partial Response (PR), N patients (advanced solid tumors; [1]): 4 | Best Response Progressive Disease (PD), N patients (advanced solid tumors; [1]): 15 | Best Response Stable Disease (SD), N patients (advanced solid tumors; [1]): 7 | Response Duration Median (range), PR (advanced solid tumors; [1]): 6.5 (5.5-8.2) Mo. | Response Duration Median (range), SD (advanced solid tumors; [1]): 3.5 (3-9.2) Mo. | Best Response Partial Response (PR), N patients (advanced solid tumors; [2]): 3 | Best Response Progressive Disease (PD), N patients (advanced solid tumors; [2]): 12 | Best Response Stable Disease (SD), N patients (advanced solid tumors; [2]): 7 | Response Duration Median (range), PR (advanced solid tumors; [2]): 6.3 (5.5-6.8) Mo. | Response Duration Median (range), SD (advanced solid tumors; [2]): 3.5 (3-9.2) Mo. | bestchange (best change of target lesions, Figure 3) (advanced solid tumors; DOSE_LEV 0): 27.9 and 20.3 and 4.4 | bestchange (best change of target lesions, Figure 3) (advanced solid tumors; DOSE_LEV 1): 13.1 and 6 and 1.4 and -27.5 | bestchange (best change of target lesions, Figure 3) (advanced solid tumors; DOSE_LEV 2): -66.7 and 51.2 and 47.1 | bestchange (best change of target lesions, Figure 3) (advanced solid tumors; DOSE_LEV 3): 18.9 and 4 and 74.8 | bestchange (best change of target lesions, Figure 3) (advanced solid tumors; DOSE_LEV 4): -43.4 and 50.8 and 41.7 | bestchange (best change of target lesions, Figure 3) (advanced solid tumors; DOSE_LEV 5): 17.1 and 6.4 | bestchange (best change of target lesions, Figure 3) (advanced solid tumors; DOSE_LEV 6): -12.9 and -19.4 and 54 | bestchange (best change of target lesions, Figure 3) (advanced solid tumors; DOSE_LEV 7): 36.2 and 20.5 and 9.7 | bestchange (best change of target lesions, Figure 3) (advanced solid tumors; DOSE_LEV 8): 23.1 and 10.8 and 5.6 and 0 and -62.5 and 46.6 | bestchange (best change of target lesions, Figure 3) (advanced solid tumors; DOSE_LEV 9): 7.7 and -50 | Best Response Progressive Disease (PD), N patients (advanced solid tumors; Prior PARP Inhibitor N=8): 6 | Best Response Stable Disease (SD), N patients (advanced solid tumors; Prior PARP Inhibitor N=8): 1 | Best Response Partial Response (PR), N patients (advanced solid tumors; Prior Platinum N=32): 2 | Best Response Progressive Disease (PD), N patients (advanced solid tumors; Prior Platinum N=32): 18 | Best Response Stable Disease (SD), N patients (advanced solid tumors; Prior Platinum N=32): 8 | Responses observed, share of patients (advanced solid tumors; abstract, primarily in patients with defective homologous recombination): 14% | ORR (advanced solid tumors; all treated, 4/40, 95% CI: 2.8–23.7): 10% | ORR (advanced solid tumors; breast, ovarian, pancreas tumor types, 4/29, 95% CI: 3.9–31.7%): 14% | time_on_study (advanced solid tumors; dose_level 0 (50 mg/m^2 Day 1 & 8)): 4.5667 months and 3.9425 months and 2.037 months and 1.8398 months | time_on_study (advanced solid tumors; dose_level 1 (100 mg/m^2 Day 1 & 8)): 1.1499 months and 5.5195 months and 3.2526 months | time_on_study (advanced solid tumors; dose_level 2 (150 mg/m^2 Day 1 & 8)): 10.4476 months and 1.1828 months and 0.7228 months and 0.6899 months | partial_response_date (time at which PR was documented) (advanced solid tumors; [3]): 1.643 | partial_response_duration (advanced solid tumors; [3]): 6.275 months | time_on_study (advanced solid tumors; dose_level 3 (200 mg/m^2 Day 1 & 8)): 7.3265 months and 1.1828 months and 0.6899 months and 0.46 months | time_on_study (advanced solid tumors; dose_level 4 (250 mg/m^2 Day 1 & 8)): 14.7187 months and 1.8398 months and 1.807 months | partial_response_date (time at which PR was documented) (advanced solid tumors; [4]): 6.407 | partial_response_duration (advanced solid tumors; [4]): 8.246 months | time_on_study (advanced solid tumors; dose_level 5 (325 mg/m^2 Day 1 & 8)): 1.2485 months and 1.1828 months and 1.0185 months | time_on_study (advanced solid tumors; dose_level 6 (475 mg/m^2 Day 1 & 8)): 11.039 months and 3.8768 months and 1.8398 months | time_on_study (advanced solid tumors; dose_level 7 (325 mg/m^2 Day 1, 8 & 15)): 1.8398 months and 1.807 months and 0.8871 months | time_on_study (advanced solid tumors; dose_level 8 (475 mg/m^2 Day 1, 8 & 15)): 10.809 months and 7.3922 months and 2.1355 months and 2.0698 months and 0.9199 months | partial_response_date (time at which PR was documented) (advanced solid tumors; [5]): 3.45 | partial_response_duration (advanced solid tumors; [5]): 6.801 months | time_on_study (advanced solid tumors; dose_level 9 (650 mg/m^2 Day 1, 8 & 15)): 7.8193 months and 2.9897 months and 1.6099 months and 1.577 months and 1.0185 months | partial_response_date (time at which PR was documented) (advanced solid tumors; [6]): 1.708 | partial_response_duration (advanced solid tumors; [6]): 5.487 months | objective responses in patients who had received prior platinum (advanced solid tumors; in vivo): 2/32 | patients with durable SD (≥6 months) (advanced solid tumors; of 11 SD): 4 | Objective response (all PR), patients (advanced solid tumors; of 32 evaluable patients, best response in target lesions): 4 | shrinkage in target lesions (advanced solid tumors; one patient, gBRCA2-related pancreatic cancer, best response SD): 13% | best response (advanced solid tumors; one patient, metastatic breast cancer, germline PALB2 frameshift mutation): confirmed PR | WST-1 reading (source data of fractional survival) (HCT116 cells; 1.00E-07 M, 5mJ/cm2 UV): 0.1726 and 0.1634 | WST-1 reading (source data of fractional survival) (HCT116 cells; 1.00E-07 M, 125 mJ/cm2 UV): 0.1356 and 0.1403 | WST-1 reading (source data of fractional survival) (HCT116 cells; 1.00E-07 M, no UV): 0.3459 and 0.3709 | WST-1 reading (source data of fractional survival) (HCT116 cells; 1.25E-08 M, 5mJ/cm2 UV): 1.8446 and 1.2623 | WST-1 reading (source data of fractional survival) (HCT116 cells; 1.25E-08 M, 125 mJ/cm2 UV): 0.2266 and 0.2178 | WST-1 reading (source data of fractional survival) (HCT116 cells; 1.25E-08 M, no UV): 2.7124 and 3.0988 | WST-1 reading (source data of fractional survival) (HCT116 cells; 1.56E-09 M, 5mJ/cm2 UV): 3.1522 and 3.1435 | WST-1 reading (source data of fractional survival) (HCT116 cells; 1.56E-09 M, 125 mJ/cm2 UV): 1.3637 and 1.8262 | WST-1 reading (source data of fractional survival) (HCT116 cells; 1.56E-09 M, no UV): 3.1762 and 3.2869 | WST-1 reading (source data of fractional survival) (HCT116 cells; 2.00E-07 M, 5mJ/cm2 UV): 0.1417 and 0.1383 | WST-1 reading (source data of fractional survival) (HCT116 cells; 2.00E-07 M, 125 mJ/cm2 UV): 0.1411 and 0.1324 | WST-1 reading (source data of fractional survival) (HCT116 cells; 2.00E-07 M, no UV): 0.3331 and 0.2744 | WST-1 reading (source data of fractional survival) (HCT116 cells; 2.50E-08 M, 5mJ/cm2 UV): 0.4834 and 0.4002 | WST-1 reading (source data of fractional survival) (HCT116 cells; 2.50E-08 M, 125 mJ/cm2 UV): 0.1513 and 0.1801 | WST-1 reading (source data of fractional survival) (HCT116 cells; 2.50E-08 M, no UV): 2.611 and 2.0841 | WST-1 reading (source data of fractional survival) (HCT116 cells; 3.13E-09 M, 5mJ/cm2 UV): 2.2833 and 2.9624 | WST-1 reading (source data of fractional survival) (HCT116 cells; 3.13E-09 M, 125 mJ/cm2 UV): 0.7443 and 0.527 | WST-1 reading (source data of fractional survival) (HCT116 cells; 3.13E-09 M, no UV): 3.0831 and 3.1401 | WST-1 reading (source data of fractional survival) (HCT116 cells; 3.91E-10 M, 5mJ/cm2 UV): 3.2465 and 3.2794 | WST-1 reading (source data of fractional survival) (HCT116 cells; 3.91E-10 M, 125 mJ/cm2 UV): 2.6106 and 3.2813 | WST-1 reading (source data of fractional survival) (HCT116 cells; 3.91E-10 M, no UV): 3.2563 and 3.2975 | WST-1 reading (source data of fractional survival) (HCT116 cells; 5.00E-08 M, 5mJ/cm2 UV): 0.1995 and 0.2071 | WST-1 reading (source data of fractional survival) (HCT116 cells; 5.00E-08 M, 125 mJ/cm2 UV): 0.1444 and 0.1401 | WST-1 reading (source data of fractional survival) (HCT116 cells; 5.00E-08 M, no UV): 0.8754 and 0.871 | WST-1 reading (source data of fractional survival) (HCT116 cells; 6.25E-09 M, 5mJ/cm2 UV): 2.1762 and 2.4422 | WST-1 reading (source data of fractional survival) (HCT116 cells; 6.25E-09 M, 125 mJ/cm2 UV): 0.3527 and 0.3295 | WST-1 reading (source data of fractional survival) (HCT116 cells; 6.25E-09 M, no UV): 2.9424 and 3.2905 | WST-1 reading (source data of fractional survival) (HCT116 cells; 7.81E-10 M, 5mJ/cm2 UV): 3.2172 and 3.1228 | WST-1 reading (source data of fractional survival) (HCT116 cells; 7.81E-10 M, 125 mJ/cm2 UV): 2.9376 and 2.9926 | WST-1 reading (source data of fractional survival) (HCT116 cells; 7.81E-10 M, no UV): 3.2642 and 3.2669 | potentiation of UVA-induced cytotoxicity (HCT116 cells; UV 5 mJ/cm^2 and 125 mJ/cm^2): Strong potentiation | G4 binding and stabilization (G-quadruplex (G4) DNA): potent G4 binder and stabilizer
